The nature of series [1]: Acute toxicity (LD50, 24 hours, intraperitoneal). To be noted: mouse, in vivo, ip. Here is the method:
(§1) The products to be studied were administered by the intraperitoneal route in increasing doses to batches of 10 mice. The mortality provoked by the products studied was noted during the 24 hours following administration of the product.
From the results obtained, the lethal dose 50, i.e. the dose provoking the death of 50% of the animals studied, is determined for each of the products studied.

The next series has as its system mice. Description: Convulsivant threshold dose (same experiments as acute toxicity). The class given is in vivo, mouse. The procedure: as §1
During the same experiments, the convulsivant threshold dose of the product is also noted, i.e. the minimum dose for which a convulsivant activity begins to show.

For series [2], the system named is ptosis induced by reserpine. Description: Antagonism of the ptosis induced by reserpine. The class given is in vivo, female mouse CDI (Charles River). The following applies: reserpine 2 mg/kg i.v., 1 hour; for ED50: Mus musculus, ip. The procedure:
This test, described by GOURET (Journal de Pharmacologie (Paris), 1973, 4(1), 105-128), was carried out on the female mouse CDI (Charles River) weighing 20±1 g. The reserpine provokes a ptosis one hour after intravenous administration thereof; certain antidepressants oppose this ptosis.
The substances to be studied were administered by the i.p. route. The reserpine is administered simultaneously by the intravenous route at the dose of 2 mg/kg. One hour after administration of the reserpine, the number of animals not presenting ptosis is noted.
This test was carried out on batches of 10 mice, the results are expressed in percentage of animals not presenting ptosis and are the average of at least two experiments.

Series [3] has as its system striatal dopaminergic receptors. Description: Dopaminomimetic activity (rotations after unilateral lesion of nigrostriatal dopaminergic neurones). The class given is in vivo, mouse. The following applies: 5.3 μmoles/kg i.p. The text has this:
The dopaminomimetic activity of the products of the invention was studied on the striatal dopaminergic receptors of the mouse according to the technique described by P. PROTAIS and J. COSTENTIN, Journal de Pharmacologie (Paris), 7, 251-255 (1976).
The unilateral lesion of the nigrostriatal dopaminergic neurones induces a hypersensitivity of the receptors of the dopamine at the level of the striatum.
After administration of the products to be studied by the intraperitoneal route, the number of rotations made by the animal is counted for a period of 2 minutes.
The results are expressed in the form of percentage of the variations with respect to the controls not having received the product to be studied.

Series [4] relates to despair reaction (duration of immobilisation). Briefly: Despair reaction ("Behavioral Despair"). The class given is in vivo, female mouse, CDI (Charles River). The following applies: 10 mg/kg i.p., 1 hour before test; immobile time between 2nd and 6th minute. Here is the method:
This test was carried out on the female mouse, CDI (Charles River), weighing 18 to 23 g, according to the method described by Porsolt (Archives Internationales de Pharmacodynamie, 1977, 229, 327-336). The principle of this test is as follows: when a mouse is placed in a narrow recipient filled with water, it struggles, then, after 2 to 4 mins., it becomes still and floats on its stomach, its back rounded, its rear paws drawn up under its body and it makes only a few movements necessary for holding its head out of the water. This is the so-called despair reaction. Certain psychotherapeutic agents, particularly antidepressants, extend the time during which the mouse struggles. The products to be studied were administered by the i.p. route 1 hour before the test. For the test, the animals are placed in a narrow recipient (10×10×10 cm) filled with water up to a height of 6 cm, the temperature of the water being 24° C.±2° C. The animals are left 6 minutes in the water and the time when the animal remains immobile between the 2nd and the 6th minute is measured--the shorter this time, the more the substance is active. Each substance was studied on a batch of 10 mice. The results are the average of at least two experiments.

For series [5] the following is noted: cited from earlier work.
Where [6] appears, read: mice, mortality during 24 hours.

Where a name gives a salt, the structure may show the parent alone.

For the molecule `COc1ccc(-c2cc(C)c(NCCN3CCOCC3)nn2)cc1` [CM 30073, reference compound], the LD50 (as a rule, the dose at which mortality reaches 50%) at 24 h in series [1] (setting [6]) is 19 mg/kg. Moreover, the Convulsivant threshold dose in the series on mice (i.p., mice, minimum dose for which a convulsivant activity begins to show) was 5 mg/kg. Further, the “Antagonism of the ptosis induced by reserpine (percentage of animals not presenting ptosis)” value in series [2] (1 mg/kg i.p.) came to 30%; in series [2] (5 mg/kg i.p.) it was 60%. Moreover, the “Average number of ipsilateral rotations in 2 minutes, % with respect to controls” value (“Average number … % with respect to controls” below) in series [3] turned out to be 0%.

`Cc1cc(-c2ccccc2)nnc1NCCNCCO` [CM 30311, 3-[2-(2-HYDROXY ETHYLAMINO)ETHYLAMINO]4-METHYL 6-PHENYL PYRIDAZINE, DIHYDROCHLORIDE] came in with an LD50 at 24 h in series [1] of over 200 mg/kg. Besides, the Convulsivant threshold dose in the series with mice (mouse, in vivo, ip) amounted to 200 mg/kg. In addition, the “Average number … % with respect to controls” value in series [3] was -146%.

`Br.Br.Cc1cc(-c2ccc(O)cc2)nnc1NCCN1CCOCC1` [CM 30366, 3-(2-MORPHOLINO ETHYLAMINO)4-METHYL 6-(4-HYDROXY PHENYL)PYRIDAZINE DIHYDROBROMIDE]: in series [4], the “"Behavioral Despair" % of reduction of the duration of immobilisation” value was -31%. In series [1], this molecule yielded an LD50 at 24 h of over 200 mg/kg. The Convulsivant threshold dose in the series on mice (mouse, in vivo, ip) came out at 200 mg/kg. Moreover, the ED50 (as a rule, the midpoint of the dose-response relation) in series [2] was determined as 12 mg/kg. Also, the “Average number … % with respect to controls” value in series [3] was -111%.

On to `Cc1cc(-c2ccccc2)nnc1N` [CM 30465, 3-AMINO 4-METHYL 6-PHENYL PYRIDAZINE(HYDROCHLORIDE)], for which the “"Behavioral Despair" % of reduction of the duration of immobilisation” value in series [4] was -24%. In series [1], this molecule displayed an LD50 at 24 h of 226 mg/kg. In addition, in the series with mice (mouse, in vivo, ip), the Convulsivant threshold dose is listed as 200 mg/kg. The same molecule showed an ED50 in series [2] of 8.6 mg/kg. Moreover, the “Average number … % with respect to controls” value in series [3] is given as -89%.

On to `Cc1cc(-c2ccccc2)nnc1NCCN1CCOCC1=O` [CM 30488, 3-[2-(3-OXO 4-MORPHOLINYL)ETHYLAMINO]4-METHYL 6-PHENYL PYRIDAZINE, HYDROCHLORIDE], for which the LD50 at 24 h in series [1] was over 300 mg/kg. In the series with mice (mouse, in vivo, ip), this molecule had a Convulsivant threshold dose of 300 mg/kg. Also, the ED50 in series [2] came to 20 mg/kg. Besides, the “Average number … % with respect to controls” value in series [3] is -90%.

Turning to `Cc1cc(-c2ccccc2)nnc1NCCN1CCOC(=O)C1` [CM 30489, 3-[2-(2-OXO 4-MORPHOLINYL)ETHYLAMINO]4-METHYL 6-PHENYL PYRIDAZINE, DIHYDROCHLORIDE], the “Average number … % with respect to controls” value in series [3] is -97%.

As for `Cc1cc(-c2ccccc2)nnc1NCCN1CCOCC1` [Minaprine, reference compound], the “"Behavioral Despair" % of reduction of the duration of immobilisation” value in series [4] is on record as -35%. This molecule came in with a Convulsivant threshold dose in the series with mice (mouse, in vivo, ip) of 35 mg/kg. The molecule further returned an ED50 in series [2] of 5 mg/kg. The “type of psychotherapeutic action” value in series [5] (in vivo) was “"disinhibitory" activity”. In addition, the “dose above which convulsivant” value in series [5] (per os) was “higher than 100 mg/kg”. Besides, in series [3], the “Average number … % with respect to controls” value is on record as -91%.

In the case of `Cc1cc(-c2ccccc2)nnc1NCC[N+]1([O-])CCOCC1` [SR 30490, N-OXIDE of 3-(2-MORPHOLINO ETHYLAMINO 4-METHYL 6-PHENYL PYRIDAZINE], in series [1], the LD50 at 24 h was over 200 mg/kg. In the series with mice (mouse, in vivo, ip), this molecule yielded a Convulsivant threshold dose of 300 mg/kg. The molecule also displayed an ED50 in series [2] of about 50 mg/kg.

`Cc1cc(-c2ccccc2O)nnc1NCCN1CCOCC1` [SR 95070, 3-(2-morpholinoethylamino)4-methyl 6-(2-hydroxyphenyl)pyridazine]: the LD50 at 24 h in series [1] (setting [6]) is over 200 mg/kg. In the series with mice (mouse, in vivo, ip), this molecule registered a Convulsivant threshold dose of 200 mg/kg. For the same molecule, the “Average number … % with respect to controls” value in series [3] was -89%.

With `Cc1cc(-c2cccc(O)c2)nnc1NCCN1CCOCC1` [SR 95082, 3-(2-morpholinoethylamino)4-methyl 6-(3-hydroxyphenyl)pyridazine], the LD50 at 24 h in series [1] (setting [6]) is over 200 mg/kg. This molecule also yielded a Convulsivant threshold dose in the series on mice (mouse, in vivo, ip) of over 200 mg/kg.

For `CCN(CCO)CCNc1nnc(-c2ccccc2)cc1C` [SR 95084, 3-{2-[N-ethyl(2-hydroxyethylamino)]ethylamino}4-methyl 6-phenyl pyridazine], in series [1] (setting [6]), the LD50 at 24 h is 100 to 200 mg/kg. Also, the Convulsivant threshold dose in the series on mice (mouse, in vivo, ip) is recorded as 200 mg/kg.

On to `Cc1cc(-c2ccc(O)cc2)nnc1N` [SR 95087, 3-amino 4-methyl 6-(4-hydroxyphenyl)pyridazine], for which the LD50 at 24 h in series [1] (setting [6]) is over 200 mg/kg. For the same molecule, the Convulsivant threshold dose in the series with mice (mouse, in vivo, ip) was over 200 mg/kg.

These data come from patent US4576946A, “Derivatives of 4-methyl 6-phenyl pyridazine active on the central nervous system” (Sanofi, priority 1981, dated 1986).
